# Legend:
# Test in all cases: X-ray crystal structure, […] Å
# Assay type in all cases: binding
# WlaRD (C8J_1081) [1] = molecular target: T1, WlaRD (C8J_1081) (Campylobacter jejuni, UniProt Q9ALS6)
# WlaRD (C8J_1081) [2] = molecular target: T1, WlaRD (C8J_1081); remark: listed apart in the source
# WlaRD (C8J_1081) [3] = molecular target: T1, WlaRD (C8J_1081); details: complex with N^5-formyl-THF
compound,measurement,setting,value
Nc1nc2c(c(=O)[nH]1)N(C=O)[C@@H](CNc1ccc(C(=O)N[C@@H](CCC(=O)O)C(=O)O)cc1)CN2 [N^5-formyl-THF],"X-ray crystal structure, 1.4 Å (cocrystal)","WlaRD (C8J_1081) [1]; complex with dTDP, not catalytically competent cofactor analog",that of the enzyme complexed with N^5-formyl-THF and dTDP
Nc1nc2c(c(=O)[nH]1)N[C@@H](CNc1ccc(C(=O)N[C@@H](CCC(=O)O)C(=O)O)cc1)CN2 [THF],"X-ray crystal structure, 1.9 Å (soak, turnover in crystal)",WlaRD (C8J_1081) [2]; complex with dTDP-Qui3N (subunit A) or dTDP-Qui3NFo (subunit B),"In subunit A, THF and dTDP-Qui3N were observed"
Cc1cn([C@H]2C[C@H](O)[C@@H](COP(=O)(O)OP(=O)(O)O[C@H]3O[C@H](C)[C@H](O)[C@H](NC=O)[C@H]3O)O2)c(=O)[nH]c1=O [dTDP-Fuc3NFo],"X-ray crystal structure, 1.45 Å (cocrystal)",WlaRD (C8J_1081) [3],to form such a complex in the presence of dTDP-Fuc3NFo as shown
Cc1cn([C@H]2C[C@H](O)[C@@H](COP(=O)(O)OP(=O)(O)O[C@H]3O[C@H](C)[C@@H](O)[C@H](NC=O)[C@H]3O)O2)c(=O)[nH]c1=O [dTDP-Qui3NFo],"X-ray crystal structure, 1.9 Å (soak, turnover in crystal)","WlaRD (C8J_1081) [2]; complex with THF, subunit B","In subunit B, however, the products THF and dTDP-Qui3NFo were present"
Cc1cn([C@H]2C[C@H](O)[C@@H](COP(=O)(O)OP(=O)(O)O)O2)c(=O)[nH]c1=O [dTDP],"X-ray crystal structure, 1.4 Å (cocrystal)","WlaRD (C8J_1081) [1]; complex with N^5-formyl-THF, also with N^10-formyl-THF",that of the enzyme complexed with N^5-formyl-THF and dTDP

# Source: publication PMC3915720 (Biochemistry, 2013)
